Experimental data from US11547697B2, “Heterocyclic compounds and uses thereof” (MILLENNIUM PHARMACEUTICALS, INC., priority 2009, dated 2023).
Like-named read-outs stand apart in the source and are kept apart here.

Legend:
p110α/p85α = p110α/p85α (Homo sapiens (Human), UniProt P42336); experiment: PI 3-Kinase (human) HTRF assay, p110α/p85α; type: biochemical
p110β/p85α = p110β/p85α (Homo sapiens (Human), UniProt P42338); experiment: PI 3-Kinase (human) HTRF assay, p110β/p85α; type: biochemical
p110δ/p85α = p110δ/p85α (Homo sapiens (Human), UniProt O00329); experiment: PI 3-Kinase (human) HTRF assay, p110δ/p85α; type: biochemical
p110γ = p110γ (Homo sapiens (Human), UniProt P48736); experiment: PI 3-Kinase (human) HTRF assay, p110γ; type: biochemical
recombinant mTOR = recombinant mTOR (Homo sapiens (Human), UniProt P42345); experiment: mTOR inhibition assay (radiometric or LanthaScreen TR-FRET); type: biochemical
Procedure: The compounds described herein can be tested against recombinant mTOR (Invitrogen) in an assay containing 50 mM HEPES, pH 7.5, 1 mM EGTA, 10 mM MgCl2, 2.5 mM, 0.01% Tween, 10 pM ATP (2.5 μCi of μ-32P-ATP), and 3 μg/mL BSA. R^at recombinant PHAS-1/4EBP1 (Calbiochem; 2 mg/mL) is used as a substrate. Reactions are terminated by spotting onto nitrocellulose, which is washed with 1M NaCl/1% phosphoric acid (approximately 6 times, 5-10 minutes each). Sheets are dried and the transferred radioactivity quantitated by phosphorimaging.
For instance, one can use Invitrogen's LanthaScreen™ Kinase assay to test the inhibitors of mTOR disclosed herein. This assay is a time resolved FRET platform that measures the phosphorylation of GFP labeled 4EBP1 by mTOR kinase. The kinase reaction is performed in a white 384 well microtitre plate. The total reaction volume is 20 ul per well and the reaction buffer composition is 50 mM HEPES pH7.5, 0.01% Polysorbate 20, 1 mM EGTA, 10 mM MnCl2, and 2 mM DTT. In the first step, each well receives 2 ul of test compound in 20% dimethylsulphoxide resulting in a 2% DMSO final concentration. Next, 8 ul of mTOR diluted in reaction buffer is added per well for a 60 ng/ml final concentration. To start the reaction, 10 ul of an ATP/GFP-4EBP1 mixture (diluted in reaction buffer) is added per well for a final concentration of 10 μM ATP and 0.5 μM GFP-4EBP1. The plate is sealed and incubated for 1 hour at room temperature. […] The plate is sealed, incubated for 1 hour at room temperature, and then read on a plate reader set up for LanthaScreen™ TR-FRET. Data is analyzed and IC50s are generated using GraphPad Prism 5.

[1] = system: tumor cells with a PI3Kα mutation (e.g., MDA-MB-361 and T47D); experiment: Proliferation of tumor cells with PI3Kα mutation; type: cell-based; conditions: Homo sapiens, T47D cells
[2] = in vitro, read-out: PI3K α IC50
[3] = in vitro, read-out: PI3K β IC50
[4] = in vitro, read-out: PI3K δ IC50
[5] = in vitro, read-out: PI3K γ IC50
[6] = read-out: T47D proliferation IC50

p110α/p85α, sequence (P42336 whole entry): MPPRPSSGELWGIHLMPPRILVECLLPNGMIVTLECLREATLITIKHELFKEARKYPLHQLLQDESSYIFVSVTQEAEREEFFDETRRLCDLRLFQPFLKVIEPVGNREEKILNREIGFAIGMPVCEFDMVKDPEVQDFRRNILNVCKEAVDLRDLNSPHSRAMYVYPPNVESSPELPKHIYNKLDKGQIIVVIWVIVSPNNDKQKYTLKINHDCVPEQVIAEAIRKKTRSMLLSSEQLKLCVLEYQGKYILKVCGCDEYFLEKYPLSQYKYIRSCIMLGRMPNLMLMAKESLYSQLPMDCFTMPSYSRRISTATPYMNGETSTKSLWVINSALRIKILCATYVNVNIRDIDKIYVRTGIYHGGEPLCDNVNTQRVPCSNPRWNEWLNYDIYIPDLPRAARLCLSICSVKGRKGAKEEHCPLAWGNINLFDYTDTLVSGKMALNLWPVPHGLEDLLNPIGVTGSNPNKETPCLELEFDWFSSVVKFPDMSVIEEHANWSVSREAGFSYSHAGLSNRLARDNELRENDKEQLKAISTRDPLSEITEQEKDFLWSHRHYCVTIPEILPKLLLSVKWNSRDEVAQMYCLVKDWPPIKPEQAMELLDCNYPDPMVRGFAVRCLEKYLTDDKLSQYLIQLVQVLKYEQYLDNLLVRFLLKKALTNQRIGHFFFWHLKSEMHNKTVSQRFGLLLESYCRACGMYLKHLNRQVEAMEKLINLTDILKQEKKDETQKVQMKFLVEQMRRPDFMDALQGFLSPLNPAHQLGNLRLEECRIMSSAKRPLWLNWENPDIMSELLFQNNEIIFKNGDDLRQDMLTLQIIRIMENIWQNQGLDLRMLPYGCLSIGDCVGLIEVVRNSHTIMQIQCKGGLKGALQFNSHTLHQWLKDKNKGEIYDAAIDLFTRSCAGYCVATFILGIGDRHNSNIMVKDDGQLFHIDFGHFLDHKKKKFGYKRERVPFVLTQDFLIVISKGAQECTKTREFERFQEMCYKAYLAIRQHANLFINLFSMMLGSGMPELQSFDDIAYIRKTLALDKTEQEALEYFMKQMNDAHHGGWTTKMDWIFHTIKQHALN
p110α/p85α, sequence (P27986 whole entry partner): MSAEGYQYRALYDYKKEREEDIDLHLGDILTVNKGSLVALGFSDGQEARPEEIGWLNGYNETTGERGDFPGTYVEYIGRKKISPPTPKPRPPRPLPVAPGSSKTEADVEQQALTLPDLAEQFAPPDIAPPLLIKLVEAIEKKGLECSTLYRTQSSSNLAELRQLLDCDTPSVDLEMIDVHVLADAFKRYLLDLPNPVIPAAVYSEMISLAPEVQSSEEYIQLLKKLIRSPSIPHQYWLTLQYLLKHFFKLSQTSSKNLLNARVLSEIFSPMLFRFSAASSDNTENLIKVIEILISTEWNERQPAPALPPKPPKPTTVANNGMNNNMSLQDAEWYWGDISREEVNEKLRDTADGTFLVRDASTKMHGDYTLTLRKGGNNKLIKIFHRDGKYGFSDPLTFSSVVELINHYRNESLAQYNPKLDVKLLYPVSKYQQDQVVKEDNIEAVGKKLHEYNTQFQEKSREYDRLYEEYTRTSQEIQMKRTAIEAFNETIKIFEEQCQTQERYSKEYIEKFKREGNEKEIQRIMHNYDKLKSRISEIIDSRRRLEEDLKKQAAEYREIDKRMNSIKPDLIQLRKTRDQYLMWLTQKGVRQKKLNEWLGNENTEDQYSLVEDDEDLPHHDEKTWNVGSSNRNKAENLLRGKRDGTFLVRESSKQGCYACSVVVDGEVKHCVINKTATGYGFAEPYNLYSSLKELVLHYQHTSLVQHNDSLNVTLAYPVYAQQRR
recombinant mTOR, sequence (P42345 1360-2549): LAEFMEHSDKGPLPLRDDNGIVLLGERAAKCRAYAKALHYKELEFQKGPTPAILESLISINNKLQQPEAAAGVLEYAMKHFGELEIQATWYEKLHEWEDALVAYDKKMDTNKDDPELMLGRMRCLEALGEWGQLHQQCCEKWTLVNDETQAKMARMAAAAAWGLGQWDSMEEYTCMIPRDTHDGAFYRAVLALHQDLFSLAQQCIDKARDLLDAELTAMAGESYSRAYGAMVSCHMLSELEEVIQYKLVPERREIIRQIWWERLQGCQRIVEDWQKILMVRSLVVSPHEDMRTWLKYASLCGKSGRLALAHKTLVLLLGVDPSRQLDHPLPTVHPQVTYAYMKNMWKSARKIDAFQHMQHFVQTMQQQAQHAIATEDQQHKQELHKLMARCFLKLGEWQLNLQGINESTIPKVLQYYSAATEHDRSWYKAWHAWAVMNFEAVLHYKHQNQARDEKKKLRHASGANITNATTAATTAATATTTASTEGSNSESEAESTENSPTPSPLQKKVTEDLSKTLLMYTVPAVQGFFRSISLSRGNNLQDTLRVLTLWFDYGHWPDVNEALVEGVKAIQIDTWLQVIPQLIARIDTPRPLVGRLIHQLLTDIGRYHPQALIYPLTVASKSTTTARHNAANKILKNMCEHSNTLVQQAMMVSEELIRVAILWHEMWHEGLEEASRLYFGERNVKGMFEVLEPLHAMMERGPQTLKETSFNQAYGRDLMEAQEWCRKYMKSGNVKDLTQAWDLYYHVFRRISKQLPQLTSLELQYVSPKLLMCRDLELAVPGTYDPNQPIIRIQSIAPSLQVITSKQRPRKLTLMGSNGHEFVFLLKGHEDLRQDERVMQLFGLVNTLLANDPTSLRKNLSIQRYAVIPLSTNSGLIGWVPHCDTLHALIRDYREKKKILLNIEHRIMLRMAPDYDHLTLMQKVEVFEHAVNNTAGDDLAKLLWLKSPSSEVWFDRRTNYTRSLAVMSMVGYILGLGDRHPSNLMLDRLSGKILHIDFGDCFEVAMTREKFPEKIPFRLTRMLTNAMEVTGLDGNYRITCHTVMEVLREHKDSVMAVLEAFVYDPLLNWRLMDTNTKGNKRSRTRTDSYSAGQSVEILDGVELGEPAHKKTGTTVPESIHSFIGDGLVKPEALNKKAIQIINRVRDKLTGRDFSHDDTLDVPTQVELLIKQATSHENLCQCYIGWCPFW
p110δ/p85α, sequence (O00329 whole entry): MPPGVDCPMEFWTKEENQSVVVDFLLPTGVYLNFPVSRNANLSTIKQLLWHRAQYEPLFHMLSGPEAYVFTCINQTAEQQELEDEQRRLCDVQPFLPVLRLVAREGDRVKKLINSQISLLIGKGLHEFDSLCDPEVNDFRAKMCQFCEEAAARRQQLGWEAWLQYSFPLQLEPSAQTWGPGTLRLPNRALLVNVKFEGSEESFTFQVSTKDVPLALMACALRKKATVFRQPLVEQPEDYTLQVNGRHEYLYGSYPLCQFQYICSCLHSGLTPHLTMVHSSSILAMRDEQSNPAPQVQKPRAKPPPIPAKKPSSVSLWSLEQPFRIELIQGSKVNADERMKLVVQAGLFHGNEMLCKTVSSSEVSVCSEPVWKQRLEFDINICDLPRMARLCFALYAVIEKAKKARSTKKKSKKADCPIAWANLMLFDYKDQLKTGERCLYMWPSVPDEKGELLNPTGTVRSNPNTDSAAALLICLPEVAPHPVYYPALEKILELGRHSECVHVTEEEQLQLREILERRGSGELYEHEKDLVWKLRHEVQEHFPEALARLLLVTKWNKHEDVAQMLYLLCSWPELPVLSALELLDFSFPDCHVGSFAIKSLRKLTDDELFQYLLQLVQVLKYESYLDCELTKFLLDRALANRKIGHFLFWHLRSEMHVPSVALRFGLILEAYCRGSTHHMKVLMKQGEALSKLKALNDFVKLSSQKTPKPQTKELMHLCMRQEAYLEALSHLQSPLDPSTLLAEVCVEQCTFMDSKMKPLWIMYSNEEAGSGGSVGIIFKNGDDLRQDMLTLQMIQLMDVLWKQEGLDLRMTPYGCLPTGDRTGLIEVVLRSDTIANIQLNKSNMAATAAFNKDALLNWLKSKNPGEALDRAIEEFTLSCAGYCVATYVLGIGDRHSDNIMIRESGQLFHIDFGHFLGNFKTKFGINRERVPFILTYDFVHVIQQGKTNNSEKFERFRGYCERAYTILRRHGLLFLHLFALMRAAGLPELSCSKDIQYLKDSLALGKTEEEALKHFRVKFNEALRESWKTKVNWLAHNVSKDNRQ
p110δ/p85α, sequence (P27986 whole entry partner): as the sequence (P27986 whole entry partner) above

SMILES	IC50 (p110α/p85α; read-out: PI3K α IC50)	IC50 (p110β/p85α; read-out: PI3K β IC50)	IC50 (p110δ/p85α; read-out: PI3K δ IC50)	IC50 (p110γ; read-out: PI3K γ IC50)	IC50 (recombinant mTOR; read-out: MTORC IC50)	IC50 ([1]; read-out: T47D proliferation)	IC50 (p110α/p85α; [2])	IC50 (p110β/p85α; [3])	IC50 (p110δ/p85α; [4])	IC50 (p110γ; [5])	IC50 (recombinant mTOR; in vitro, read-out: MTORC IC50)	also measured
Nc1nc2cccc(-c3ccc4nccc(-c5ccncc5)c4c3)c2o1 [compound 15]	< 100 nM	< 100 nM	< 1000 nM	< 1000 nM	< 100 nM	–	–	–	–	–	–	–
CN1CCC(Nc2ncnc3ccc(-c4ccc5oc(N)nc5c4)cc23)CC1 [compound 35]	< 100 nM	–	< 100 nM	< 100 nM	< 10000 nM	< 10000 nM	–	–	–	–	–	–
CN1CCC(n2cnc3ccc(-c4ccc5oc(N)nc5c4)cc3c2=O)CC1 [compound 36]	< 100 nM	–	< 10000 nM	–	< 10000 nM	< 10000 nM	–	–	–	–	–	–
Cn1cc(-c2cnc3ccc(-c4ccc5oc(N)nc5c4)cn23)cn1 [compound 41]	< 100 nM	–	< 1000 nM	< 1000 nM	< 10000 nM	< 10000 nM	–	–	–	–	–	–
Nc1nc2cc(-c3ccc4ncnc(OC5CCOCC5)c4c3)ccc2o1 [compound 47]	< 100 nM	< 1000 nM	< 1000 nM	< 1000 nM	< 100 nM	< 1000 nM	–	–	–	–	–	–
Nc1nc2cc(-c3ccc4ncc(OC5CCOCC5)nc4c3)ccc2o1 [compound 49]	< 100 nM	–	< 10000 nM	< 1000 nM	< 10000 nM	< 10000 nM	–	–	–	–	–	–
Cc1nc2ccc(-c3ccc4oc(N)nc4c3)nn2c1-c1ccncc1 [compound 56]	< 100 nM	< 1000 nM	–	< 100 nM	< 1000 nM	< 10000 nM	–	–	–	–	–	–
CC(=O)N1CCC(Nc2ncnc3ccc(-c4ccc5oc(N)nc5c4)cc23)CC1 [compound 60]	< 100 nM	< 10000 nM	< 1000 nM	< 100 nM	< 1000 nM	–	–	–	–	–	–	–
Nc1nc2cc(-c3ccn4ncc(-c5ccncc5)c4n3)ccc2o1 [compound 62]	< 100 nM	< 100 nM	< 100 nM	< 100 nM	< 100 nM	–	–	–	–	–	–	–
Nc1nc2cc(-c3ccc4ncc(N5CCOCC5)nc4c3)ccc2o1 [compound 64]	< 100 nM	< 1000 nM	–	< 100 nM	< 10000 nM	< 10000 nM	–	–	–	–	–	–
CC(C)N1CCC(n2cnc3ccc(-c4ccc5oc(N)nc5c4)cc3c2=O)CC1 [compound 74]	< 100 nM	< 10000 nM	–	< 10000 nM	< 10000 nM	< 10000 nM	–	–	–	–	–	–
Nc1nc2cc(-c3ccc4ncc(-c5cccnc5)nc4c3)ccc2o1 [compound 76]	< 100 nM	–	–	< 1000 nM	< 10000 nM	< 10000 nM	–	–	–	–	–	–
CCOC(=O)N1CCN(c2cnc3ccc(-c4ccc5oc(N)nc5c4)cc3n2)CC1 [compound 119]	< 100 nM	< 10000 nM	< 10000 nM	< 10000 nM	< 10000 nM	< 10000 nM	–	–	–	–	–	–
Nc1nc2cc(-c3ccc4ncc(N5CC(C(=O)N6CCOCC6)C5)nc4c3)ccc2o1 [compound 169]	< 100 nM	< 1000 nM	< 1000 nM	< 1000 nM	< 10000 nM	< 1000 nM	–	–	–	–	–	–
CN1CCN(C(=O)C2CN(c3cnc4ccc(-c5ccc6oc(N)nc6c5)cc4n3)C2)CC1 [compound 170]	< 100 nM	< 1000 nM	< 1000 nM	< 10000 nM	< 10000 nM	< 1000 nM	–	–	–	–	–	–
Nc1nc2cc(-c3ccc4nc(N)sc4c3)ccc2o1 [compound 232]	–	–	–	–	–	–	< 1000 nM	< 1000 nM	< 10000 nM	< 100 nM	< 10000 nM	–

SMILES	IC50 (p110α/p85α; read-out: PI3K α IC50)	IC50 (p110β/p85α; read-out: PI3K β IC50)	IC50 (p110δ/p85α; read-out: PI3K δ IC50)	IC50 (p110γ; read-out: PI3K γ IC50)	IC50 (recombinant mTOR; read-out: MTORC IC50)	IC50 ([1]; read-out: T47D proliferation)	IC50 (p110α/p85α; [2])	IC50 (p110β/p85α; [3])	IC50 (p110δ/p85α; [4])	IC50 (p110γ; [5])	IC50 (recombinant mTOR; in vitro, read-out: MTORC IC50)	also measured
Nc1nc2cc(-c3ccc4ncc(N5CC[C@H](O)C5)nc4c3)ccc2o1 [compound 262]	–	–	–	–	–	–	< 100 nM	< 1000 nM	–	< 1000 nM	< 10000 nM	IC50 [1, 6]: < 10000 nM
C[C@@H]1CN(C(=O)C2CN(c3cnc4ccc(-c5ccc6oc(N)nc6c5)cc4n3)C2)CCN1 [compound 267]	–	–	–	–	–	–	< 100 nM	< 10000 nM	< 1000 nM	< 1000 nM	< 10000 nM	IC50 [1, 6]: < 1000 nM
CC(C)[C@@H](N)C(=O)N1CCN(c2cnc3ccc(-c4ccc5oc(N)nc5c4)cc3n2)CC1 [compound 270]	–	–	–	–	–	–	< 100 nM	< 1000 nM	< 1000 nM	< 1000 nM	< 10000 nM	IC50 [1, 6]: < 1000 nM
Nc1nc2cc(-c3ccc4ncc(N5CC(N6CCOCC6)C5)nc4c3)ccc2o1 [compound 273]	–	–	–	–	–	–	< 100 nM	–	–	< 10000 nM	< 1000 nM	IC50 [1, 6]: < 1000 nM
CN1CCN(C2CN(C(=O)c3cnc4ccc(-c5ccc6oc(N)nc6c5)cn34)C2)CC1 [compound 303]	–	–	–	–	–	–	< 100 nM	–	< 10000 nM	–	< 10000 nM	IC50 [1, 6]: < 1000 nM
Nc1nc2cc(-c3ccc4ncc(N5CC(N6CCN(C7CC7)CC6)C5)nc4c3)ccc2o1 [compound 313]	–	–	–	–	–	–	< 100 nM	< 10000 nM	< 10000 nM	< 10000 nM	< 10000 nM	–
Nc1nc2cc(-c3ccc4ncc(N5CC(N6CC[C@@H](O)C6)C5)nc4c3)ccc2o1 [compound 315]	–	–	–	–	–	–	< 100 nM	< 10000 nM	< 10000 nM	< 10000 nM	< 1000 nM	–
Nc1nc2cc(-c3ccc4ncc(N5CCC(n6ccnc6)CC5)nc4c3)ccc2o1 [compound 345]	–	–	–	–	–	–	< 100 nM	< 1000 nM	< 1000 nM	< 1000 nM	< 10000 nM	–
Nc1nc2cc(-c3nc(N4CCOCC4)c4cnn(C5CCNCC5)c4n3)ccc2o1 [compound 348]	–	–	–	–	–	–	< 1000 nM	< 100 nM	< 10000 nM	< 1000 nM	< 1000 nM	–
CS(=O)(=O)N1CCN(C2CCN(c3cnc4ccc(-c5ccc6oc(N)nc6c5)cc4n3)CC2)CC1 [compound 377]	–	–	–	–	–	–	< 100 nM	< 10000 nM	< 10000 nM	< 1000 nM	< 10000 nM	–
CN(C)[C@@H]1CCN(c2cnc3ccc(-c4ccc5oc(N)nc5c4)cc3n2)C1 [compound 378]	–	–	–	–	–	–	< 100 nM	< 100 nM	< 10000 nM	< 10000 nM	< 1000 nM	–
Nc1nc2cc(-c3ccc4ncc(N5CCNC(C(F)(F)F)C5)nc4c3)ccc2o1 (stereo not drawn) [compound 384]	–	–	–	–	–	–	< 100 nM	< 1000 nM	< 10000 nM	< 1000 nM	< 1000 nM	–
CC1(C)CN(C2CN(c3cnc4ccc(-c5ccc6oc(N)nc6c5)cc4n3)C2)CCN1 [compound 388]	–	–	–	–	–	–	< 100 nM	< 1000 nM	< 1000 nM	< 1000 nM	< 100 nM	–
COc1ncc(-c2ccc3ncc(C(=O)N4CCOCC4)n3c2)cc1NS(=O)(=O)c1ccc(F)cc1F [compound 417]	–	–	–	–	–	–	–	–	–	–	–	IC50 (p110α/p85α; read-out: PI3K α In Vitro IC50): < 100 nM; IC50 (p110β/p85α; read-out: PI3K β In Vitro IC50): < 100 nM; IC50 (p110δ/p85α; read-out: PI3K δ In Vitro IC50): < 100 nM; IC50 (p110γ; read-out: PI3K γ In Vitro IC50): < 100 nM; IC50 (recombinant mTOR; read-out: MTORC In Vitro IC50): < 1000 nM
CS(=O)(=O)Nc1cc(-c2ccc3ncc(C(=O)N4CCOCC4)n3c2)cnc1Cl [compound 418]	–	–	–	–	–	–	–	–	–	–	–	IC50 (p110α/p85α; read-out: PI3K α In Vitro IC50): < 100 nM; IC50 (p110β/p85α; read-out: PI3K β In Vitro IC50): < 100 nM; IC50 (p110δ/p85α; read-out: PI3K δ In Vitro IC50): < 100 nM; IC50 (p110γ; read-out: PI3K γ In Vitro IC50): < 100 nM; IC50 (recombinant mTOR; read-out: MTORC In Vitro IC50): < 100 nM
O=C(c1cnc2ccc(-c3cnc(Cl)c(NS(=O)(=O)c4ccc(F)cc4F)c3)cn12)N1CCOCC1 [compound 419]	–	–	–	–	–	–	–	–	–	–	–	IC50 (p110α/p85α; read-out: PI3K α In Vitro IC50): < 100 nM; IC50 (p110β/p85α; read-out: PI3K β In Vitro IC50): < 100 nM; IC50 (p110δ/p85α; read-out: PI3K δ In Vitro IC50): < 100 nM; IC50 (p110γ; read-out: PI3K γ In Vitro IC50): < 100 nM; IC50 (recombinant mTOR; read-out: MTORC In Vitro IC50): < 1000 nM
